According to patent US20200138854A1, “Method of Detecting and Quantifying Bile Acid from Saliva” (Ironwood Pharmaceuticals, Inc., priority 2017, published 2020):
Several values for one entry are separate records, joined by “and”; a condition that tells them apart may be missing. Equal entries are not always repeated.

Assays:
[1] = Frozen (−20° C.) short-term stability in cholestyramine-treated human saliva; details: for % Bias QC-LLOQ / Mean concentration QC-LLOQ / Concentration QC-LLOQ / % Bias QC-Mid / Mean concentration QC-Mid / Concentration QC-Mid / % Bias QC-High / Mean concentration QC-High / Concentration QC-High: cholestyramine-treated human saliva; for Concentration QC-LLOQ / Concentration QC-Mid / Concentration QC-High: single determinations; for Mean concentration after frozen (−20° C.) storage: n 4
Experimental: Quality control samples for the evaluation of accuracy and precision and for run acceptance were prepared on the day of sample extraction. QC samples prepared in cholestyramine-treated saliva are to be prepared in small volumes for analysis. Stability for these QC samples would be limited to short-term storage (i.e., 2 days) whereas untreated human saliva would be evaluated for long-term storage.
For stability in cholestyramine-treated human saliva, samples were prepared by spiking cholestyramine-treated human saliva with each analyte at the QC-LLOQ, QC-Low, QC-Mid and QC-High levels. The samples were stored in a −20° C. freezer. After 1 day and 2 days of storage, each sample was extracted in replicates of four for analysis.

[2] = Long-term (1 month at −20° C. and −80° C.) stability in untreated human saliva; details: for Long-term stability in untreated human saliva: at 80° C. (sic); for % Bias QC-High / Difference from Fresh (%) QC-High / Mean concentration QC-High / Concentration QC-High / Mean at Time Zero, Fresh QCs (Batch 34), QC-High: untreated human saliva; for Concentration QC-High: single determinations; for Concentration after long-term storage / Mean concentration after long-term storage: 1 Month; for Concentration after long-term storage / Mean concentration after long-term storage / % Bias / Difference from Fresh (%) / Fresh QCs (Batch 34) Mean at Time Zero: QC-High; for Concentration after long-term storage: individual values, run 35; for Mean concentration after long-term storage: n 3; for % Bias / Difference from Fresh (%): 1 month
Experimental: For long-term stability in untreated human saliva, samples were prepared by spiking untreated human saliva with each analyte at the QC-Low and QC-High levels. The samples were stored in a −20° C. freezer and in a −80° C. freezer. After 1 month of storage, each sample was extracted in replicates of three for analysis.
A 100-μL aliquot of sample (calibration standards, quality controls, blanks, and stability samples) was transferred into a 96 well plate, according to a pre-defined layout. […] The plates were covered, vortex-mixed and then centrifuged for 5 minutes at 3200 rpm. Supernatants (350 μL each) were transferred into the corresponding wells of a clean 96 well plate and evaporated to dryness under nitrogen in a Turbovap set to 40° C. The dried residue in each well was reconstituted with 75 μL of 50:50 (v:v) methanol:water.

[3] = nominal 5.00 ng/mL, 1 Day frozen (−20° C.)
[4] = nominal 5.00 ng/mL, 2 Days frozen (−20° C.)
[5] = nominal 80.0 ng/mL, 1 Day frozen (−20° C.)
[6] = nominal 80.0 ng/mL, 2 Days frozen (−20° C.)
[7] = nominal 800 ng/mL, 1 Day frozen (−20° C.)
[8] = nominal 800 ng/mL, 2 Days frozen (−20° C.)
[9] = nominal 800 ng/mL, 1 month −20° C. storage
[10] = nominal 800 ng/mL, 1 month −80° C. storage
[11] = −20° C. Storage, nominal 80.0 ng/mL
[12] = −80° C. Storage, nominal 80.0 ng/mL
[13] = nominal 0.500 ng/mL, 1 Day frozen (−20° C.)
[14] = nominal 0.500 ng/mL, 2 Days frozen (−20° C.)
[15] = nominal 8.00 ng/mL, 1 Day frozen (−20° C.)
[16] = nominal 8.00 ng/mL, 2 Days frozen (−20° C.)
[17] = nominal 80.0 ng/mL, 1 month −20° C. storage
[18] = nominal 80.0 ng/mL, 1 month −80° C. storage

Structure (SMILES): C[C@H](CCC(=O)O)[C@H]1CC[C@H]2[C@@H]3[C@H](O)C[C@@H]4C[C@H](O)CC[C@]4(C)[C@H]3CC[C@]12C [Chenodeoxycholic Acid, Chenodeoxycholic acid]
- Short-term stability in cholestyramine-treated human saliva [1]: up to 2 days
- Stability in Treated Human Saliva [1]: 2 days
- % Bias QC-LLOQ [1, 3]: 0.4%
- Mean concentration QC-LLOQ [1, 3]: 5.02 ng/mL
- Concentration QC-LLOQ [1, 3]: 4.72 ng/mL and 5.20 ng/mL and 4.89 ng/mL and 5.28 ng/mL
- % Bias QC-LLOQ [1, 4]: 18.3%
- Mean concentration QC-LLOQ [1, 4]: 5.92 ng/mL
- Concentration QC-LLOQ [1, 4]: 5.73 ng/mL and 6.15 ng/mL and 5.60 ng/mL and 6.18 ng/mL
- % Bias QC-Mid [1, 5]: 2.5%
- Mean concentration QC-Mid [1, 5]: 82.0 ng/mL
- Concentration QC-Mid [1, 5]: 85.9 ng/mL and 84.8 ng/mL and 78.0 ng/mL and 79.2 ng/mL
- % Bias QC-Mid [1, 6]: 4.6%
- Mean concentration QC-Mid [1, 6]: 83.7 ng/mL
- Concentration QC-Mid [1, 6]: 80.0 ng/mL and 87.1 ng/mL and 88.9 ng/mL and 78.8 ng/mL
- % Bias QC-High [1, 7]: −14.7%
- Mean concentration QC-High [1, 7]: 683 ng/mL
- Concentration QC-High [1, 7]: 644 ng/mL and 699 ng/mL and 671 ng/mL and 717 ng/mL
- % Bias QC-High [1, 8]: −9.3%
- Mean concentration QC-High [1, 8]: 725 ng/mL
- Concentration QC-High [1, 8]: 693 ng/mL and 777 ng/mL and 725 ng/mL and 706 ng/mL
- Long-term stability in untreated human saliva [2]: up to 1 month
- Stability in Untreated Human Saliva ([2]; at −20° C.): 1 Month
- Stability in Untreated Human Saliva ([2]; at −80° C.): 1 Month
- % Bias QC-High [2, 9]: −15.1%
- Difference from Fresh (%) QC-High [2, 9]: −13.5%
- Mean concentration QC-High [2, 9]: 679 ng/mL
- Concentration QC-High [2, 9]: 693 ng/mL and 686 ng/mL and 659 ng/mL
- % Bias QC-High [2, 10]: −15.7%
- Difference from Fresh (%) QC-High [2, 10]: −14.1%
- Mean concentration QC-High [2, 10]: 674 ng/mL
- Concentration QC-High [2, 10]: 701 ng/mL and 692 ng/mL and 630 ng/mL
- Mean at Time Zero, Fresh QCs (Batch 34), QC-High ([2]; nominal 800 ng/mL, reference for −20° C. storage): 785 ng/mL
- Mean at Time Zero, Fresh QCs (Batch 34), QC-High ([2]; nominal 800 ng/mL, reference for −80° C. storage): 785 ng/mL

Structure (SMILES): C[C@H](CCC(=O)O)[C@H]1CC[C@H]2[C@@H]3[C@H](O)C[C@@H]4C[C@H](O)CC[C@]4(C)[C@H]3C[C@H](O)[C@]12C [Cholic Acid, Cholic acid]
- % Bias ([1]; Storage period 1 Day at −20° C., QC-High, nominal 80.0 ng/mL): −6.7%
- % Bias ([1]; Storage period 1 Day at −20° C., QC-LLOQ, nominal 0.500 ng/mL): −0.9%
- % Bias ([1]; Storage period 1 Day at −20° C., QC-Mid, nominal 8.00 ng/mL): −5.9%
- Mean concentration after frozen (−20° C.) storage ([1]; Storage period 1 Day, QC-High, nominal 80.0 ng/mL): 74.7 ng/mL
- Mean concentration after frozen (−20° C.) storage ([1]; Storage period 1 Day, QC-LLOQ, nominal 0.500 ng/mL): 0.496 ng/mL
- Mean concentration after frozen (−20° C.) storage ([1]; Storage period 1 Day, QC-Mid, nominal 8.00 ng/mL): 7.53 ng/mL
- % Bias ([1]; Storage period 2 Days at −20° C., QC-High, nominal 80.0 ng/mL): −6.2%
- % Bias ([1]; Storage period 2 Days at −20° C., QC-LLOQ, nominal 0.500 ng/mL): 12.1%
- % Bias ([1]; Storage period 2 Days at −20° C., QC-Mid, nominal 8.00 ng/mL): −3.6%
- Mean concentration after frozen (−20° C.) storage ([1]; Storage period 2 Days, QC-High, nominal 80.0 ng/mL): 75.1 ng/mL
- Mean concentration after frozen (−20° C.) storage ([1]; Storage period 2 Days, QC-LLOQ, nominal 0.500 ng/mL): 0.561 ng/mL
- Mean concentration after frozen (−20° C.) storage ([1]; Storage period 2 Days, QC-Mid, nominal 8.00 ng/mL): 7.72 ng/mL
- Concentration after long-term storage [2, 11]: 72.6 ng/mL and 76.7 ng/mL and 76.0 ng/mL
- Mean concentration after long-term storage [2, 11]: 75.1 ng/mL
- Concentration after long-term storage [2, 12]: 79.6 ng/mL and 77.9 ng/mL and 77.2 ng/mL
- Mean concentration after long-term storage [2, 12]: 78.2 ng/mL
- % Bias [2, 11]: −6.1%
- Difference from Fresh (%) [2, 11]: −6.1%
- % Bias [2, 12]: −2.2%
- Difference from Fresh (%) [2, 12]: −2.2%
- Fresh QCs (Batch 34) Mean at Time Zero ([2]; reference for −20° C. Storage, nominal 80.0 ng/mL): 80.0 ng/mL
- Fresh QCs (Batch 34) Mean at Time Zero ([2]; reference for −80° C. Storage, nominal 80.0 ng/mL): 80.0 ng/mL

Structure (SMILES): C[C@H](CCC(=O)NCC(=O)O)[C@H]1CC[C@H]2[C@@H]3[C@H](O)C[C@@H]4C[C@H](O)CC[C@]4(C)[C@H]3C[C@H](O)[C@]12C [Glycocholic Acid, Glycocholic acid]
- Short-term stability in cholestyramine-treated human saliva [1]: up to 2 days
- Stability in Treated Human Saliva [1]: 2 days
- % Bias QC-LLOQ [1, 13]: −1.8%
- Mean concentration QC-LLOQ [1, 13]: 0.491 ng/mL
- Concentration QC-LLOQ [1, 13]: 0.485 ng/mL and 0.474 ng/mL and 0.464 ng/mL and 0.541 ng/mL
- % Bias QC-LLOQ [1, 14]: 8.5%
- Mean concentration QC-LLOQ [1, 14]: 0.542 ng/mL
- Concentration QC-LLOQ [1, 14]: 0.464 ng/mL and 0.541 ng/mL and 0.485 ng/mL and 0.474 ng/mL
- % Bias QC-Mid [1, 15]: −10.3%
- Mean concentration QC-Mid [1, 15]: 7.18 ng/mL
- Concentration QC-Mid [1, 15]: 7.20 ng/mL and 7.21 ng/mL and 7.28 ng/mL and 7.01 ng/mL
- % Bias QC-Mid [1, 16]: −8.3%
- Mean concentration QC-Mid [1, 16]: 7.34 ng/mL
- Concentration QC-Mid [1, 16]: 7.28 ng/mL and 7.01 ng/mL and 7.20 ng/mL and 7.21 ng/mL
- % Bias QC-High [1, 5]: −7.5%
- Mean concentration QC-High [1, 5]: 74.0 ng/mL
- Concentration QC-High [1, 5]: 73.2 ng/mL and 74.9 ng/mL and 73.6 ng/mL and 74.2 ng/mL
- % Bias QC-High [1, 6]: −6.7%
- Mean concentration QC-High [1, 6]: 74.7 ng/mL
- Concentration QC-High [1, 6]: 73.6 ng/mL and 74.2 ng/mL and 73.2 ng/mL and 74.9 ng/mL
- Long-term stability in untreated human saliva [2]: up to 1 month
- Stability in Untreated Human Saliva ([2]; at −20° C.): 1 Month
- Stability in Untreated Human Saliva ([2]; at −80° C.): 1 Month
- % Bias QC-High [2, 17]: −5.9%
- Difference from Fresh (%) QC-High [2, 17]: −6.3%
- Mean concentration QC-High [2, 17]: 75.3 ng/mL
- Concentration QC-High [2, 17]: 72.8 ng/mL and 75.6 ng/mL and 77.5 ng/mL
- % Bias QC-High [2, 18]: −4.8%
- Difference from Fresh (%) QC-High [2, 18]: −5.3%
- Mean concentration QC-High [2, 18]: 76.1 ng/mL
- Concentration QC-High [2, 18]: 78.4 ng/mL and 75.9 ng/mL and 74.1 ng/mL
- Mean at Time Zero, Fresh QCs (Batch 34), QC-High ([2]; nominal 80.0 ng/mL, reference for −20° C. storage): 80.4 ng/mL
- Mean at Time Zero, Fresh QCs (Batch 34), QC-High ([2]; nominal 80.0 ng/mL, reference for −80° C. storage): 80.4 ng/mL

Structure (SMILES): C[C@H](CCC(=O)O)[C@H]1CC[C@H]2[C@@H]3CC[C@@H]4C[C@H](O)CC[C@]4(C)[C@H]3CC[C@]12C [Lithocholic Acid, Lithocholic acid]
- Short-term stability in cholestyramine-treated human saliva [1]: up to 2 days
- Stability in Treated Human Saliva [1]: 2 days
